The record followed here is patent publication US20220395496A1 (Hoffmann-La Roche Inc., priority 2019, published 2022).

Usually pIC50 stands for the IC50 on a negative log10 scale, so that one unit is a factor of ten.

Molecules are shown by their SMILES. pIC50: −log10 of the molar value. Some results are limits rather than exact numbers.

For this assay, the target named is T1, human TLR8 (Homo sapiens, UniProt Q9NR97).
T1 sequence (Q9NR97 27-1041): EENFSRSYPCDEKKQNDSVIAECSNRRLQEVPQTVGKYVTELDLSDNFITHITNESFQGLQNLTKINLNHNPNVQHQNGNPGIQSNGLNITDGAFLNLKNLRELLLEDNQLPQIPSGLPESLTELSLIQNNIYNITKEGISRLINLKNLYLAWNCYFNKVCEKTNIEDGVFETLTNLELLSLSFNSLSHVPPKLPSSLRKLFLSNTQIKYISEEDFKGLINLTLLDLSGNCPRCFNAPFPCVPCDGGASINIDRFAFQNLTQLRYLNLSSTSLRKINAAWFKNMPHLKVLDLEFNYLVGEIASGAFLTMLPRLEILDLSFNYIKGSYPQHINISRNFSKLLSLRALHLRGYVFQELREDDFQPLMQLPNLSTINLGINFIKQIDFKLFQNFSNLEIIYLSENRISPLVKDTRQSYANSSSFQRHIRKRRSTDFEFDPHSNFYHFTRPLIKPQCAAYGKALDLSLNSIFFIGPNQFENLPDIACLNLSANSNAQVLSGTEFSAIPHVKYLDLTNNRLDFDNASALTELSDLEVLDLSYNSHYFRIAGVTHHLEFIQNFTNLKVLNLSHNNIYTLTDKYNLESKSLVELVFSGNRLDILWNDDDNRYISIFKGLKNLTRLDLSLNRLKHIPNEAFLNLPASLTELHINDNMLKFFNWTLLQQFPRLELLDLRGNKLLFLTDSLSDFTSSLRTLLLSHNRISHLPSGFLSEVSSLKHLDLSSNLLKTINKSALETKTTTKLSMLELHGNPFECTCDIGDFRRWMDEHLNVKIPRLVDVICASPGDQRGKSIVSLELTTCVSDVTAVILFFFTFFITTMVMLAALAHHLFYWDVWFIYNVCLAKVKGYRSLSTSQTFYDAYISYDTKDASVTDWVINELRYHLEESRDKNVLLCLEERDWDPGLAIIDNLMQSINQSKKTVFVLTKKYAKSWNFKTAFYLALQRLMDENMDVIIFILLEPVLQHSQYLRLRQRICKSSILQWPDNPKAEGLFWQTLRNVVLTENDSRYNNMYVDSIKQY
Put plainly: HEK293-Blue-hTLR-8 cells assay (SEAP reporter, R848 stimulation). To be noted: HEK293-Blue-hTLR8 cells, R848, 20 hrs; lowest tested concentration 0.0032. Format: cell-based. The protocol:
The following tests were carried out in order to determine the activity of the compounds of this invention in HEK293-Blue-hTLR-7/8/9 cells assay.
HEK293-Blue-hTLR-8 Cells Assay:
A stable HEK293-Blue-hTLR-8 cell line was purchased from InvivoGen (Cat. #: hkb-htlr8, San Diego, Calif., USA). These cells were originally designed for studying the stimulation of human TLR8 by monitoring the activation of NF-κB. A SEAP (secreted embryonic alkaline phosphatase) reporter gene was placed under the control of the IFN-β minimal promoter fused to five NF-κB and AP-1-binding sites. The SEAP was induced by activating NF-κB and AP-1 via stimulating HEK-Blue hTLR8 cells with TLR8 ligands. Therefore the reporter expression was declined by TLR8 antagonist under the stimulation of a ligand, such as R848, for incubation of 20 hrs. The cell culture supernatant SEAP reporter activity was determined using QUANTI-Blue™kit (Cat. #: rep-qb1, Invivogen, San Diego, Calif., USA) at a wavelength of 640 nm, a detection medium that turns purple or blue in the presence of alkaline phosphatase.
HEK293-Blue-hTLR8 cells were incubated at a density of […] cells/mL in a volume of 170 μL in a 96-well plate in Dulbecco's Modified Eagle's medium (DMEM) containing 4.5 g/L glucose, 50 U/mL penicillin, […], […], 2 mM L-glutamine, 10% (v/v) heat-inactivated fetal bovine serum with addition of 20 μL test compound in a serial dilution in the presence of final DMSO at 1% and 10 μL of 60 uM R848 in above DMEM, perform incubation under 37° C. in a CO2 incubator for 20 hrs. Then 20 μL of the supernatant from each well was incubated with 180 μL Quanti-blue substrate solution at 37° C. for 2 hrs and the absorbance was read at 620˜655 nm using a spectrophotometer. The signalling pathway that TLR8 activation leads to downstream NF-κB activation has been widely accepted, and therefore similar reporter assay was modified for evaluating TLR8 antagonist.
For the molecule `C[C@H]1C[C@@H](NCc2ccc(N3CCC(N)C3)cc2)CN(c2ccc(C#N)c3ncccc23)C1` (stereo partly drawn) [Example 13, 5-[(3R,5S)-3-[[4-(3-aminopyrrolidin-1-yl)phenyl]methylamino]-5-methyl-1-piperidyl]quinoline-8-carbonitrile], the pIC50 was 8.22.

With `C[C@H]1C[C@@H](NCc2cccc(N3CCN(C)CC3)c2)CN(c2ccc(C#N)c3ncccc23)C1` [Example 6, 5-[(3S,5R)-3-methyl-5-[[3-(4-methylpiperazin-1-yl)phenyl]methylamino]-1-piperidyl]quinoline-8-carbonitrile], the pIC50 was 8.40.

In turn, `C[C@H]1C[C@@H](NCc2cnc(N3CCNCC3)cn2)CN(c2ccc(C#N)c3ncccc23)C1` [Example 31, 5-[(3S,5R)-3-methyl-5-[(5-piperazin-1-ylpyrazin-2-yl)methylamino]-1-piperidyl]quinoline-8-carbonitrile] gave a pIC50 of more than 8.49.

For the molecule `C[C@H]1C[C@@H](NCc2cccc(N3CCNCC3)c2)CN(c2ccc(C#N)c3ncccc23)C1` [Example 8, 5-[(3S,5R)-3-methyl-5-[(3-piperazin-1-ylphenyl)methylamino]-1-piperidyl]quinoline-8-carbonitrile], the pIC50 was 8.05.

Molecule `C[C@H]1C[C@@H](NCc2ccc3c(c2)CCNC3)CN(c2ccc(C#N)c3ncccc23)C1` [Example 11, 5-[(3S,5R)-3-methyl-5-(1,2,3,4-tetrahydroisoquinolin-6-ylmethylamino)-1-piperidyl]quinoline-8-carbonitrile] gave a pIC50 of more than 8.49.

`C[C@H]1C[C@@H](NCc2cnc(N3CCN(C)CC3)nc2)CN(c2ccc(C#N)c3ncccc23)C1` [Example 16, 5-[(3S,5R)-3-methyl-5-[[2-(4-methylpiperazin-1-yl)pyrimidin-5-yl]methylamino]-1-piperidyl]quinoline-8-carbonitrile] had a pIC50 of more than 8.49.

Molecule `C[C@H]1C[C@@H](N(C)Cc2ccc(N3CCNCC3)cc2)CN(c2ccc(C#N)c3ncccc23)C1` [Example 9, 5-[(3S,5R)-3-methyl-5-[methyl-[(4-piperazin-1-ylphenyl)methyl]amino]-1-piperidyl]quinoline-8-carbonitrile] gave a pIC50 of 8.30.

For the molecule `Cc1cc(-c2ccc(CN[C@@H]3C[C@H](C)CN(c4ccc(C#N)c5ncccc45)C3)cc2)cc(C)n1` [Example 15, 5-[(3R,5S)-3-[[4-(2,6-dimethyl-4-pyridyl)phenyl]methylamino]-5-methyl-1-piperidyl]quinoline-8-carbonitrile], the pIC50 is 8.00. This pIC50 lies 0.30 log units lower than the previous one.

Molecule `C[C@H]1C[C@@H](NCc2cnc(N3CCN[C@H](C)C3)nc2)CN(c2ccc(C#N)c3ncccc23)C1` [Example 28, 5-[(3S,5R)-3-methyl-5-[[2-[(3R)-3-methylpiperazin-1-yl]pyrimidin-5-yl]methylamino]-1-piperidyl]quinoline-8-carbonitrile] showed a pIC50 of more than 8.49.

Regarding `C[C@H]1C[C@@H](NCc2ccc(N3CCNCC3)cc2F)CN(c2ccc(C#N)c3ncccc23)C1` [Example 4, 5-[(3R,58)-3-[(2-fluoro-4-piperazin-1-yl-phenyl)methylamino]-5-methyl-1-piperidyl]quinoline-8-carbonitrile], the negative-log IC50 (pIC50) was more than 8.49.

`CC(N[C@@H]1C[C@H](C)CN(c2ccc(C#N)c3ncccc23)C1)c1ccc(N2CCNCC2)cc1` (stereo partly drawn) [Example 26, 5-[(3S,5R)-3-methyl-5-[1-(4-piperazin-1-ylphenyl)ethylamino]-1-piperidyl]quinoline-8-carbonitrile] gave a pIC50 not below 8.52.

The molecule `C[C@H]1C[C@@H](NCc2ccc(N3CCN(C)CC3)cn2)CN(c2ccc(C#N)c3ncsc23)C1` [Example 18, 7-[(3S,5R)-3-methyl-5-[[5-(4-methylpiperazin-1-yl)-2-pyridyl]methylamino]-1-piperidyl]-1,3-benzothiazole-4-carbonitrile] had a negative logarithm of the IC50 (pIC50) of more than 8.49.

As for `C[C@H]1C[C@@H](NCc2cnc(N3CCN[C@@H](C)C3)nc2)CN(c2ccc(C#N)c3ncccc23)C1` [Example 29, 5-[(3S,5R)-3-methyl-5-[[2-[(3S)-3-methylpiperazin-1-yl]pyrimidin-5-yl]methylamino]-1-piperidyl]quinoline-8-carbonitrile], the negative logarithm of the IC50 (pIC50) was more than 8.49.

Molecule `C[C@H]1C[C@@H](NCc2ncc(N3CCNCC3)cn2)CN(c2ccc(C#N)c3ncccc23)C1` [Example 25, 5-[(3S,5R)-3-methyl-5-[(5-piperazin-1-ylpyrimidin-2-yl)methylamino]-1-piperidyl]quinoline-8-carbonitrile] had a negative logarithm of the IC50 (pIC50) of more than 8.49.

For the molecule `C[C@H]1C[C@@H](N2CCc3cc(N4CCNCC4)ccc3C2)CN(c2ccc(C#N)c3ncccc23)C1` (relative stereo) [Example 24, 5-[cis-3-methyl-5-(6-piperazin-1-yl-3,4-dihydro-1H-isoquinolin-2-yl)-1-piperidyl]quinoline-8-carbonitrile], the negative logarithm of the IC50 (pIC50) is more than 8.49.

For the molecule `C[C@H]1C[C@@H](NCc2ccc3c(n2)CCNC3)CN(c2ccc(C#N)c3ncccc23)C1` [Example 30, 5-[(3S,5R)-3-methyl-5-(5,6,7,8-tetrahydro-1,6-naphthyridin-2-ylmethylamino)-1-piperidyl]quinoline-8-carbonitrile], the pIC50 was more than 8.49.

The molecule `C[C@H]1C[C@@H](NCc2ccc(N3CCNCC3)cc2)CN(c2ccc(C#N)c3nccnc23)C1` [Example 3, 8-[(3S,5R)-3-methyl-5-[(4-piperazin-1-ylphenyl)methylamino]-1-piperidyl]quinoxaline-5-carbonitrile] had a pIC50 of 8.40.

The molecule `C[C@H]1C[C@@H](NCc2ccc(N3CCNCC3)cc2)CN(c2ccc(Cl)c3ncccc23)C1` [Example 22, (3R,5S)-1-(8-chloro-5-quinolyl)-5-methyl-N-[(4-piperazin-1-ylphenyl)methyl]piperidin-3-amine] showed a pIC50 of 8.30. This pIC50 and that of the molecule before are within 0.2 log units of each other.

In the case of `C[C@H]1C[C@@H](NCc2ccc(N3CCNCC3)cn2)CN(c2ccc(C#N)c3ncccc23)C1` [Example 5, 5-[(3S,5R)-3-methyl-5-[(5-piperazin-1-yl-2-pyridyl)methylamino]-1-piperidyl]quinoline-8-carbonitrile], the negative-log IC50 (pIC50) is 8.22.

On to `C[C@H]1C[C@@H](NCc2ccc(N3CCN(C)CC3)cc2)CN(c2ccc(C#N)c3ncccc23)C1` [Example 7, 5-[(3S,5R)-3-methyl-5-[[4-(4-methylpiperazin-1-yl)phenyl]methylamino]-1-piperidyl]quinoline-8-carbonitrile], for which the pIC50 is more than 8.49.
